Results published in PubChem BioAssay (NCI).
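Step 1: Grow cells in 96-well plates. Step 2: Expose to compound for 48 hours at 5 concentrations. Step 3: Interpolate endpoints linearly; if unreached, use highest concentration. At the GI50, growth is halved. At the TGI there is no net growth.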

What was measured:
Assay in all cases: NCI tumour cell line growth inhibition, 48 h
[1] = tested on: SK-OV-3 ovarian
[2] = tested on: MOLT-4 leukemia
[3] = tested on: A549 NSCLC
[4] = tested on: NCI-H522 lung
[5] = tested on: SF-268 CNS
[6] = tested on: M19-MEL melanoma
[7] = tested on: OVCAR-4 ovarian
[8] = tested on: KM12 colon
[9] = tested on: K-562 leukemia
[10] = tested on: HCT-15 colon
[11] = tested on: SF-295 CNS
[12] = tested on: ACHN renal
[13] = tested on: IGROV1 ovarian
[14] = tested on: UACC-257 melanoma
[15] = tested on: UACC-62 melanoma
[16] = tested on: HT29 colon
[17] = tested on: NCI-H460 lung
[18] = tested on: M14 melanoma
[19] = tested on: SNB-75 CNS
[20] = tested on: HL-60(TB) leukemia
[21] = tested on: OVCAR-8 ovarian
[22] = tested on: RPMI-8226 leukemia
[23] = tested on: SK-MEL-5 melanoma
[24] = tested on: EKVX NSCLC
[25] = tested on: HCC-2998 colon
[26] = tested on: MALME-3M melanoma
[27] = tested on: NCI-H226 lung
[28] = tested on: A498 renal
[29] = tested on: OVCAR-5 ovarian
[30] = tested on: OVCAR-3 ovarian
[31] = tested on: UO-31 renal
[32] = tested on: U251 CNS
[33] = tested on: SW-620 colon
[34] = tested on: KM20L2 colon
[35] = tested on: SNB-19 CNS
[36] = tested on: SN12C renal
[37] = tested on: LXFL 529 NSCLC
[38] = tested on: LOX IMVI melanoma
[39] = tested on: CAKI-1 renal
[40] = tested on: SK-MEL-2 melanoma
[41] = tested on: SK-MEL-28 melanoma
[42] = tested on: HOP-62 NSCLC
[43] = tested on: SF-539 CNS
[44] = tested on: HCT-116 colon
[45] = tested on: 786-0 renal

SMILES: CC(=O)[CH-]C(=O)c1ccccc1.CC(=O)[CH-]C(=O)c1ccccc1.O=C([O-])C[O-].O=C([O-])C[O-].[Ti+4]
- GI50 [1]: 35.8 µM
- TGI [1]: > 100 µM
- GI50 [2]: 27.7 µM
- TGI [2]: > 100 µM
- GI50 [3]: 18.2 µM
- TGI [3]: > 100 µM
- GI50 [4]: 17.5 µM
- TGI [4]: 70.5 µM
- GI50 [5]: > 100 µM
- TGI [5]: > 100 µM
- TGI [6]: > 100 µM
- GI50 [7]: 41 µM
- TGI [7]: > 100 µM
- GI50 [8]: 21.7 µM
- TGI [8]: 69.2 µM
- GI50 [9]: 71.4 µM
- TGI [9]: > 100 µM
- GI50 [10]: 30.9 µM
- TGI [10]: > 100 µM
- GI50 [11]: 50.7 µM
- TGI [11]: > 100 µM
- GI50 [12]: 44.9 µM
- TGI [12]: > 100 µM
- GI50 [13]: > 100 µM
- TGI [13]: > 100 µM
- GI50 [14]: 43.1 µM
- TGI [14]: > 100 µM
- GI50 [15]: > 100 µM
- TGI [15]: > 100 µM
- GI50 [16]: 27.7 µM
- TGI [16]: 91.7 µM
- GI50 [17]: 28.4 µM
- TGI [17]: > 100 µM
- GI50 [18]: 34.7 µM
- TGI [18]: > 100 µM
- GI50 [19]: 18.6 µM
- TGI [19]: 56.7 µM
- GI50 [20]: 40 µM
- TGI [20]: > 100 µM
- GI50 [21]: 77 µM
- TGI [21]: > 100 µM
- GI50 [22]: 49.9 µM
- TGI [22]: > 100 µM
- GI50 [23]: 31.9 µM
- TGI [23]: > 100 µM
- GI50 [24]: 96.7 µM
- TGI [24]: > 100 µM
- GI50 [25]: 40.3 µM
- TGI [25]: > 100 µM
- GI50 [26]: 34.3 µM
- TGI [26]: > 100 µM
- GI50 [27]: 19.4 µM
- TGI [27]: 73 µM
- GI50 [28]: > 100 µM
- TGI [28]: > 100 µM
- GI50 [29]: > 100 µM
- TGI [29]: > 100 µM
- GI50 [30]: 42.7 µM
- TGI [30]: > 100 µM
- GI50 [31]: 71.4 µM
- TGI [31]: > 100 µM
- GI50 [32]: 32 µM
- TGI [32]: > 100 µM
- GI50 [33]: 53.8 µM
- TGI [33]: > 100 µM
- GI50 [34]: 43.8 µM
- TGI [34]: > 100 µM
- GI50 [35]: 30.8 µM
- TGI [35]: > 100 µM
- GI50 [36]: 60.5 µM
- TGI [36]: > 100 µM
- GI50 [37]: 33.5 µM
- TGI [37]: > 100 µM
- GI50 [38]: 41.2 µM
- TGI [38]: > 100 µM
- GI50 [39]: 54.5 µM
- TGI [39]: > 100 µM
- GI50 [40]: 30.5 µM
- TGI [40]: > 100 µM
- GI50 [41]: 68.1 µM
- TGI [41]: > 100 µM
- GI50 [42]: 58.7 µM
- TGI [42]: > 100 µM
- GI50 [43]: 41.8 µM
- TGI [43]: > 100 µM
- GI50 [44]: 21.8 µM
- TGI [44]: > 100 µM
- GI50 [45]: 71.7 µM
- TGI [45]: > 100 µM
